In brackets after ≈: the same amount, converted by molar mass.

In data set [1] the test system is MRSA ATCC 43300. Briefly: Antibacterial MIC assay, serial dilution. Type of data set: cell-based, Staphylococcus aureus. The settings on record: for Selectivity index (CC50/MIC) MRSA 43300: CC50 Vero cells / MIC; for MIC: Staphylococcus aureus, read-out: MIC MRSA ATCC 43300. As for the experimental part: (§1) Media and solutions were autoclaved or sterile filtered prior to use and mani pulations were carri ed out in a laminar flow hood. Antibacterial t esting was performed in polypropylene 96-well flat bottom plates. The minimal inhibitory concentration of blasticidin S (1) hydrochloride, methyl ester (3) trihydrochloride, P10 (2) tri-T FA , phenet hyl amide (4) tri -T FA , an d blastimidines M 19– 22, A, 29–32, P 37–40, and C 43–46 (salt forms as described in the te xt) were assessed against Staphylococcus aureus ΔNorA, S. aureus ATCC 6538P, methicillin-resistant S. aureus (MRSA) ATCC 43300, Enterococcus faecalis ATCC 29212, vancomycin- resistant Enterococcus, Klebsiella pneumoniae ATCC 29665, Pseudomonas aeruginosa,and Acinetobacter baumannii ATCC 17978 using serial dilutions. Doxycycline (Gold Bio) as a positive control and the vehicle as a negative control. Stock solutions of each compound were prepared at 2.56 mg/mL in 50% DMSO/water and serially diluted in 50% DMSO/water to create master plates. From the master plates, 10 μ L o f each dilution was applied to test plates using a Bravo automated liquid transfer system (Agilent).
(§2) Bacteria previously grown overnight (37 °C, 120–200 RPM), in LB broth were diluted to an OD600 of 0.05 in cation-adjusted Mueller-Hinton broth (CAMHB), grown to an OD600 of ~0.5, and diluted to an OD600 of 0.004 in CAMHB . These diluted cultures were applied to the test plates (190 μL per test well) resulting in final concentrations of the test compounds of 128–1 μg/ m L.
(§3) Growth controls (wells with inoculated media but no vehicle or test compounds) were included to assess any potential toxicity from the vehicle. Th e plates were in cubated at 37 °C for 16–18 h, except fo r VRE and E. faecalis, which w ere in cub ated at 37 °C fo r 24 h. Inh ibition was determined by measuring the optical density at 600 nm (OD60 0) with a Cytation 3 pl ate read er (BioTek). The optical density measurem ents were no rmalized to the positive and negative controls and the vehicle and growth controls were compared and found to b e indistinguishable, indicating no toxicity from […]
(§4) the vehicle used. The MIC was the lowest concentration that inhibited >90% of growth. Two biological replicates were performed in duplicate. MIC values are reported as a range from […]

The test system of data set [2] is S. aureus ATCC 6538P. Briefly: Antibacterial MIC assay, serial dilution. Type of data set: cell-based, Staphylococcus aureus. The settings on record: for Selectivity index (CC50/MIC) S. aureus 6538P: CC50 Vero cells / MIC; for MIC: Staphylococcus aureus, ATCC 6538P / ATCC 6539P, read-out: MIC S. aureus ATCC 6539P. As for the experimental part: as §1, §2, §3, §4

Data set [3] relates to S. aureus ΔNorA. Briefly: Antibacterial MIC assay, serial dilution. It counts as cell-based, Staphylococcus aureus. The settings on record: for Selectivity index (CC50/MIC) S. aureus ΔNorA: CC50 Vero cells / MIC; for MIC: Staphylococcus aureus, read-out: MIC S. aureus ∆NorA. As for the experimental part: as §1, §2, §3, §4
Data set [4] relates to Methicillin resistant Staphylococcus epidermidis (MRSE) ATCC 35984 NRS101. Briefly: Antibacterial MIC assay, serial dilution. It counts as cell-based. The settings on record: for Selectivity index (CC50/MIC) MRSE 35984: CC50 Vero cells / MIC; for MIC: Staphylococcus epidermidis, read-out: MIC Methicillin resistant Staphylococcus epidermidis (MRSE) ATCC 35984 NRS101.
Data set [5] relates to Methicillin resistant S. aureus (MRSA) USA300. Nature of the data set: Antibacterial MIC assay, serial dilution. Type of data set: cell-based, Staphylococcus aureus. The settings on record: for Selectivity index (CC50/MIC) MRSA USA300: CC50 Vero cells / MIC; for MIC: Staphylococcus aureus, read-out: MIC Methicillin resistant S. aureus (MRSA) USA300.
For data set [6], the system named is Vancomycin resistant E. faecalis NR-31972 (VRE). Briefly: Antibacterial MIC assay, serial dilution. The settings on record: for Selectivity index (CC50/MIC) VRE NR-31972: CC50 Vero cells / MIC; for MIC: Enterococcus faecalis, VRE, 24 h, read-out: MIC Vancomycin resistant E. faecalis NR-31972 (VRE). It counts as cell-based, Enterococcus faecalis. As for the experimental part:
as §1, §2, §3, §4

In data set [7] the test system is Acinetobacter baumannii ATCC 17978. Briefly: Antibacterial MIC assay, serial dilution. The settings on record: ATCC17978, range from biological replicates. It counts as cell-based. How it is done:
as §1, §2, §3, §4

Data set [8] relates to Enterococcus faecalis ATCC 29212. Nature of the data set: Antibacterial MIC assay, serial dilution. The settings on record: for Selectivity index (CC50/MIC) E. faecalis 29212: CC50 Vero cells / MIC; for MIC: Enterococcus faecalis, ATCC 29112 / ATCC 29212, 24 h, read-out: MIC E. faecalis ATCC 29112. Type of data set: cell-based. How it is done: as §1, §2, §3, §4
In data set [9] the test system is Klebsiella pneumoniae ATCC 29665. Briefly: Antibacterial MIC assay, serial dilution. The settings on record: for Selectivity index (CC50/MIC) K. pneumoniae: CC50 Vero cells / MIC; for MIC: Klebsiella pneumoniae, ATCC29665, range from biological replicates, read-out: MIC K. pneumoniae ATCC-29665. Type of data set: cell-based. How it is done:
as §1, §2, §3, §4

Data set [10] relates to Pseudomonas aeruginosa. Nature of the data set: Antibacterial MIC assay, serial dilution. It counts as cell-based. The settings on record: for Selectivity index (CC50/MIC) P. aeruginosa: CC50 Vero cells / MIC; for MIC: Pseudomonas aeruginosa, range from biological replicates, read-out: MIC P. aeruginosa. As for the experimental part: as §1, §2, §3, §4
Data set [11] deals with Vancomycin resistant Enterococcus faecium NR-31909 (VRE). Briefly: Antibacterial MIC assay, serial dilution. Type of data set: cell-based. The settings on record: for Selectivity index (CC50/MIC) VRE NR-31909: CC50 Vero cells / MIC; for MIC: Enterococcus faecium, VRE, 24 h, read-out: MIC Vancomycin resistant Enterococcus faecium NR-31909 (VRE). As for the experimental part: as §1, §2, §3, §4

In data set [12] the test system is Escherichia coli BAA-2452. Briefly: Antibacterial MIC assay, serial dilution. It counts as cell-based. The settings on record: BAA2452, read-out: MIC Escherichia coli BAA-2452.
Data set [13] in a line: Cytotoxicity assay (MTS/PMS). Type of data set: cell-based. The settings on record: monkey, Vero cells (monkey kidney epithelial cells); 24 h treatment, MTS/PMS, average of three biological replicates; read-out: CC50 against Vero cells. How it is done: The potential cytotoxic eff ect of the test compounds was investigated using Vero cells (monkey kidney epitheli al cells) following est ablished protocols.3 Briefly, Vero cells were plated into 96-well plates supplemented with Dulbecco's Modified Eagle Medium (DMEM) containing 10% fetal bovine serum (FBS). The cells were placed in a humidified 37 °C environment for incubation with 5% CO₂ for 24 h to allow proper adherence and growth. Following the incubation period, the culture medium was replaced with fresh DMEM containing serial dilutions of the test compounds, while the v ehicle alon e w as used as a negative control. The treated cells were incubated for an additional 24 h. To assess cell viability, the MTS/PMS reagent was added to each well and incubat ed for 4 h. A microplate reader (S ynergy H1, BioTek, USA) was used to m easure absorbance at 490 nm. Al l experiments wer e cond ucted usingthree biologi cal replicates .
Ta b l e S2. CC50 valuesa (µg/mL) against Vero cells […]
aValues at which the cell viability (normalized to vehicle control) was 50%. […]

Broadly, the MIC is the smallest concentration in the dilution series that meets the test's criterion for growth inhibition. By CC50 is commonly meant the concentration that lowers cell viability or growth by half. In the case of `CN(CC[C@H](N)CC(=O)N[C@H]1C=C[C@H](n2ccc(NC(=O)c3ccc(N)cc3)nc2=O)O[C@@H]1C(N)=O)C(=N)N` [Blastimidine A2], in [1], the “Selectivity index (CC50/MIC) MRSA 43300” value is on record as 1.0. Further, the MIC in data set [1] was 16 µg/mL (≈ 29.6 µM); in [2], 16 µg/mL (≈ 29.6 µM); in data set [3], 32 µg/mL (≈ 59.2 µM); in [4], 32 µg/mL (≈ 59.2 µM); in [5], 16 µg/mL (≈ 29.6 µM); in data set [6], 32 µg/mL (≈ 59.2 µM). The MIC in [7] was over 128 µg/mL; in [8] it was 16 µg/mL (≈ 29.6 µM); in data set [9] it was 16 µg/mL (≈ 29.6 µM); in data set [10] it was over 128 µg/mL; in [11], 16 µg/mL (≈ 29.6 µM); in data set [12], 16 µg/mL (≈ 29.6 µM). For the same compound, the “Selectivity index (CC50/MIC) S. aureus 6538P” value in data set [2] is listed as 1.0. In addition, the “Selectivity index (CC50/MIC) S. aureus ΔNorA” value in data set [3] was determined as 0.5. Besides, the “Selectivity index (CC50/MIC) MRSE 35984” value in data set [4] amounted to 0.5. For the same compound, the “Selectivity index (CC50/MIC) MRSA USA300” value in data set [5] was 1.0. The “Selectivity index (CC50/MIC) VRE NR-31972” value in [6] is 0.5. Further, in data set [8], the “Selectivity index (CC50/MIC) E. faecalis 29212” value was 1.0. In data set [9], the “Selectivity index (CC50/MIC) K. pneumoniae” value was determined as 1.0. Besides, the “Selectivity index (CC50/MIC) P. aeruginosa” value in data set [10] was under 0.1. For the same compound, the “Selectivity index (CC50/MIC) VRE NR-31909” value in data set [11] was 1.0. Besides, the CC50 at 24 h in [13] was determined as 16 µg/mL (≈ 29.6 µM).
`COC(=O)[C@H]1O[C@@H](n2ccc(NC(=O)c3ccc(NC(C)=O)cc3)nc2=O)C=C[C@@H]1NC(=O)C[C@@H](N)CCN(C)C(=N)N` [Blastimidine M4]: in data set [1], the “Selectivity index (CC50/MIC) MRSA 43300” value amounted to 6.6. Further, the MIC in [1] was 32 µg/mL (≈ 53.5 µM); in data set [2] it was 16 to 32 µg/mL (≈ 26.8 to 53.5 µM); in data set [3], 32 µg/mL (≈ 53.5 µM); in data set [4] it was 64 µg/mL (≈ 107 µM); in [5], 64 µg/mL (≈ 107 µM); in data set [6], 64 µg/mL (≈ 107 µM). Also, the MIC in data set [7] was over 128 µg/mL; in data set [8] it was 32 µg/mL (≈ 53.5 µM); in data set [9], 32 µg/mL (≈ 53.5 µM); in data set [10] it was over 128 µg/mL; in data set [11], 128 µg/mL (≈ 214 µM); in [12], 64 µg/mL (≈ 107 µM). Also, the “Selectivity index (CC50/MIC) S. aureus 6538P” value in data set [2] stood at 9.9. Moreover, the “Selectivity index (CC50/MIC) S. aureus ΔNorA” value in [3] came out at 6.6. Moreover, the “Selectivity index (CC50/MIC) MRSE 35984” value in [4] stood at 3.3. For the same compound, in data set [5], the “Selectivity index (CC50/MIC) MRSA USA300” value is 3.3. Also, in [6], the “Selectivity index (CC50/MIC) VRE NR-31972” value amounted to 3.3. Further, the “Selectivity index (CC50/MIC) E. faecalis 29212” value in [8] is reported as 6.6. For the same compound, the “Selectivity index (CC50/MIC) K. pneumoniae” value in data set [9] stood at 6.6. In addition, in data set [10], the “Selectivity index (CC50/MIC) P. aeruginosa” value is reported as under 1.6. Besides, the “Selectivity index (CC50/MIC) VRE NR-31909” value in data set [11] was 1.6. In addition, in data set [13], the CC50 at 24 h amounted to 210 µg/mL (≈ 351 µM).
